# Test system: α7 integrin promoter
# Assay: muscle cell-based assay: α7βgal+/− myoblasts/myotubes, LacZ reporter, β-galactosidase cleavage of FDG
# Parameters: species or system mouse; Results in α7+/− β-galactosidase assay: scale not given here
# Settings: for Results in a α7+/− β-galactosidase assay, Myotubes, 0.5 uM: compound at 0.5 uM; for Results in a α7+/− β-galactosidase assay, Myotubes, 1 uM: compound at 1 uM; for Results in a α7+/− β-galactosidase assay, Myotubes, 5 uM: compound at 5 uM; for Results in a α7+/− β-galactosidase assay, Myotubes, 10 uM: compound at 10 uM; for Results in a α7+/− β-galactosidase assay, Myotubes, 20 uM: compound at 20 uM; for Results in a α7+/− β-galactosidase assay, Myotubes, 40 uM: compound at 40 uM; for EC50: given as log AC50 (negative values), read-out: Fit LogAC50 (converted); for Fit Curve Class: key not given; for Results in α7+/− β-galactosidase assay / Result in α7+/− β-galactosidase assay: Myoblasts
# How it was run: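 Fluorescein generated from FDG by β-galactosidase reports α7 integrin promoter activity in differentiated myoblasts from α7+/− LacZ knock-in pups. Screening hits then went to dose-response, western blotting and a myostatin counterscreen.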
# [1] = curve fit, activity at zero concentration
compound,measurement,setting,value
CC(C)(C)NC(=O)NC(=O)CN1CCN(Cc2ccccc2)CC1 [drawing 424],"Results in a α7+/− β-galactosidase assay, Myotubes, 0.5 uM",,0.003071
same,"Results in a α7+/− β-galactosidase assay, Myotubes, 1 uM",,−0.04272
same,"Results in a α7+/− β-galactosidase assay, Myotubes, 5 uM",,0.04658
same,"Results in a α7+/− β-galactosidase assay, Myotubes, 10 uM",,0.4408
same,"Results in a α7+/− β-galactosidase assay, Myotubes, 20 uM",,−0.2165
same,"Results in a α7+/− β-galactosidase assay, Myotubes, 40 uM",,0.07828
COc1nccc(NCc2ccccc2)c1C#N [Compound 169],EC50,Mus musculus,10 µM
same,Score,Table 12 compound data,42
same,Fit Curve Class,curve class number,2.1
same,Fit HillSlope,curve fit,4.4495
same,Fit Zero Activity [%],[1],−19.7104%
CCOC(=O)c1nnn(-c2nonc2OC)c1-c1ccccc1 [drawing 552],Results in α7+/− β-galactosidase assay,0.5 uM,0.01584
same,Results in α7+/− β-galactosidase assay,1 uM,0.107
same,Results in α7+/− β-galactosidase assay,5 uM,0.07484
same,Results in α7+/− β-galactosidase assay,10 uM,−0.08302
same,Results in α7+/− β-galactosidase assay,20 uM,0.003125
same,Results in α7+/− β-galactosidase assay,40 uM,−0.1081
COc1ccc(NC(=O)c2cccc(N3C(=O)c4ccc(C(=O)Nc5ccc(OC)c(O)c5)cc4C3=O)c2)cc1O [Compound 13],AC50,"Mus musculus, Table 12, log of AC50, given with negative sign, unit of AC50 not given, read-out: Fit Log AC50 (converted)",4.47 µM
same,Emax,"Mus musculus, read-out: Max Response [%]",95.6%
same,Fit HillSlope,"Table 12, curve fit",3.9295
same,Fit Zero Activity [%],"Table 12, fitted activity at zero concentration",−27.2857%
same,Fit Curve Class,Table 12,1.1
same,Score,"Table 12 Compound data, concentration-response curve fit",84
CCOc1ccccc1Nc1cc2n(c(=O)n1)CCc1cc(OC)c(OC)cc1-2 [drawing 646],Results in α7+/− β-galactosidase assay,0.5 uM,−0.02172
same,Results in α7+/− β-galactosidase assay,1 uM,0.002645
same,Results in α7+/− β-galactosidase assay,5 uM,−0.2359
same,Results in α7+/− β-galactosidase assay,10 uM,−0.3859
same,Results in α7+/− β-galactosidase assay,20 uM,−0.7975
same,Results in α7+/− β-galactosidase assay,40 uM,−0.7954
Cc1ccccc1NC(=O)c1ccc2c(O)c(Sc3ccccc3)c(=O)[nH]c2c1 [drawing 634],Results in α7+/− β-galactosidase assay,0.5 uM,−0.01711
same,Results in α7+/− β-galactosidase assay,1 uM,−0.1427
same,Results in α7+/− β-galactosidase assay,5 uM,0.008423
same,Results in α7+/− β-galactosidase assay,10 uM,−0.03481
same,Results in α7+/− β-galactosidase assay,20 uM,−0.0939
same,Results in α7+/− β-galactosidase assay,40 uM,−0.1611
COc1ccc(C(=O)/C=C2\C(=O)Nc3ccccc32)cc1OC [drawing 420],"Results in a α7+/− β-galactosidase assay, Myotubes, 0.5 uM",,−0.03323
same,"Results in a α7+/− β-galactosidase assay, Myotubes, 1 uM",,−0.07984
same,"Results in a α7+/− β-galactosidase assay, Myotubes, 5 uM",,0.02829
same,"Results in a α7+/− β-galactosidase assay, Myotubes, 10 uM",,0.263
same,"Results in a α7+/− β-galactosidase assay, Myotubes, 20 uM",,−0.3062
same,"Results in a α7+/− β-galactosidase assay, Myotubes, 40 uM",,−0.184
Cc1nnc(-c2ccc(N3CCOCC3)c([N+](=O)[O-])c2)o1 [drawing 546],Results in α7+/− β-galactosidase assay,0.5 uM,−0.06474
same,Results in α7+/− β-galactosidase assay,1 uM,−0.06237
same,Results in α7+/− β-galactosidase assay,5 uM,−0.05162
same,Results in α7+/− β-galactosidase assay,10 uM,−0.06761
same,Results in α7+/− β-galactosidase assay,20 uM,−0.1275
same,Results in α7+/− β-galactosidase assay,40 uM,−0.08865
COc1ccc(CN2CCNC(=O)C2CC(=O)NCCc2c[nH]c3ccccc23)c(OC)c1 (centres unmarked) [Compound 208],EC50,Mus musculus,10 µM
same,Score,Table 12 compound data,42
same,Fit Curve Class,curve class number,2.2
same,Fit HillSlope,curve fit,3.1925
same,Fit Zero Activity [%],[1],−9.1413%
O=C(NCCc1ccc(F)cc1)N[C@@H](Cc1ccccc1)C(=O)O [Compound 165],EC50,Mus musculus,11.2 µM
same,Score,Table 12 compound data,42
same,Fit Curve Class,curve class number,2.1
same,Fit HillSlope,curve fit,4.5045
same,Fit Zero Activity [%],[1],−20.12%
O=C1Nc2ccccc2/C1=C1\Nc2ccccc2C1=O [drawing 716],Result in α7+/− β-galactosidase assay,0.5 uM,0.06101
same,Result in α7+/− β-galactosidase assay,1 uM,0.0859
same,Result in α7+/− β-galactosidase assay,5 uM,−0.394
same,Result in α7+/− β-galactosidase assay,10 uM,−0.2837
same,Result in α7+/− β-galactosidase assay,20 uM,−0.157
same,Result in α7+/− β-galactosidase assay,40 uM,−0.1933
CCc1nc(/C=C2\C(=O)Nc3ccccc32)c[nH]1 [drawing 602],Results in α7+/− β-galactosidase assay,0.5 uM,0.2737
same,Results in α7+/− β-galactosidase assay,1 uM,0.07781
same,Results in α7+/− β-galactosidase assay,5 uM,0.08036
same,Results in α7+/− β-galactosidase assay,10 uM,0.1565
same,Results in α7+/− β-galactosidase assay,20 uM,0.1925
same,Results in α7+/− β-galactosidase assay,40 uM,−0.2038
O=C1Nc2ccccc2/C1=C/c1cccnc1 [drawing 535],Results in α7+/− β-galactosidase assay,0.5 uM,0.259
same,Results in α7+/− β-galactosidase assay,1 uM,0.1621
same,Results in α7+/− β-galactosidase assay,5 uM,−0.1077
same,Results in α7+/− β-galactosidase assay,10 uM,−0.235
same,Results in α7+/− β-galactosidase assay,20 uM,−0.5331
same,Results in α7+/− β-galactosidase assay,40 uM,−0.7528
CC(=O)Nc1nonc1-c1nc2ccccc2n1CCC(C)C [Compound 219],EC50,Mus musculus,11.2 µM
same,Score,Table 12 compound data,42
same,Fit Curve Class,curve class number,2.2
same,Fit HillSlope,curve fit,1.5936
same,Fit Zero Activity [%],[1],−7.5793%
CC(=O)Nc1ccc(NC(=O)C/C(C)=N/NC(=O)COc2cc(C)c(Br)cc2Br)cc1 [drawing 449],"Results in a α7+/− β-galactosidase assay, Myotubes, 0.5 uM",,−0.08286
same,"Results in a α7+/− β-galactosidase assay, Myotubes, 1 uM",,−0.1235
same,"Results in a α7+/− β-galactosidase assay, Myotubes, 5 uM",,−0.2507
same,"Results in a α7+/− β-galactosidase assay, Myotubes, 10 uM",,−0.3124
same,"Results in a α7+/− β-galactosidase assay, Myotubes, 20 uM",,−0.1128
same,"Results in a α7+/− β-galactosidase assay, Myotubes, 40 uM",,−0.2976

# — patent US10028992B2, “Methods of treating muscular dystrophy” (BOARD OF REGENTS OF THE NEVADA SYSTEM OF HIGHER EDUCATION …, priority 2012, dated 2018)
